Data published in publication PMC11650849, “Brain endothelial permeability, transport, and flow assessed over 10 orders of magnitude using the in situ brain perfusion technique” (Fluids and Barriers of the CNS, 2024).
Read-outs that look alike come from different tables or passages of the source.

Key:
[1] = Neutral fraction at pH 7.4 calculated from pKa; format: physicochemical; conditions: neutral fraction at perfusion fluid pH 7.40, calculated from pKa
[2] = rat in vivo measurements; cited from earlier work
[3] = rat in vivo measurements; cited from earlier work; remark: listed apart in the source
[4] = In situ rat brain perfusion (brain uptake Kin, extraction E, BBB PS); conditions: for Log Pc: Pc in cm/s; for Log Po: Po in cm/s; for Log PoS: PoS in mL/s/g; for Pc / Po: S assumed 100 cm^2/g; for PcS: cerebral cortex, S = physiological saline, AB = artificial blood
[5] = for Brain Kin: calculated at brain blood flow […] and rat serum fu; for Extraction (unbound) / Brain vascular extraction (total): calculated at brain blood flow […]; for Extraction (unbound): free drug; for Brain vascular extraction (total): with rat serum fu
[6] = ref Hansch et al. [123], Avdeef [46] or other sources, cited from earlier work; for Log Poct: octanol partition coefficient
[7] = rat, in vivo
[8] = rat
[9] = intrinsic PS of neutral solute, PoS = PcS/fn, flow 0.1–[…]

Compound	fn (%) [1] [%]	Brain Vu,br [2] [mL/g]	fu,.p [3]	Log Pc [4]	Log Po [4]	Log PoS [4]	Pc [4] [×10⁻⁶ cm/s]	Po [4] [×10⁻⁶ cm/s]	PoS ([4]; brain vascular intrinsic PoS) [mL/s/g]	PcS ([4]; flow 0.1–[…]) [mL/s/g]	PoS [4, 9] [mL/s/g]	Brain Kin [5] [mL/s/g]	Extraction (unbound) [5] [%]	Brain vascular extraction (total) [5] [%]	Log Poct [6]	Log Doct pH=7.4 [6]	half-life ([8]; brain) [min]	other results
CC(O)CO (stereo not shown) [1,2-Propanediol]	100	1.04	1.00	−4.67	−4.67	−2.67	21.6	21.6	0.00216	0.0022	0.00216	0.0112	8.6	8.6	−1.04	−1.04	–	–
OCCCO [1,3 Propanediol]	100	1.02	1.00	−4.29	−4.29	−2.29	–	–	0.00516	0.0052	0.00516	–	–	–	−0.92	−0.92	–	Pc [7]: 51.6 ×10⁻⁶ cm/s; Po [7]: 5.16e-05 cm/s
OCCCCCCO [1,6-Hexanediol]	100	1.27	0.9	–	–	–	–	–	–	–	–	0.0182	96.3	75.9	0.83	0.83	0.72	Log Pc ([7]; pH 7.4): −3.42; Log PoS ([7]; pH 7.4): −1.42; Pc ([7]; pH 7.4): 379 ×10⁻⁶ cm/s; PcS ([7]; pH 7.4): 0.038 mL/s/g; PoS ([7]; pH 7.4): 0.0379 mL/s/g; Log Po ([7]; pH 7.4): −3.42; Po ([7]; pH 7.4): 0.000379 cm/s
Cc1c(N(C)C)c(=O)n(-c2ccccc2)n1C [Aminopyrine]	99.0	1.67	0.80	–	–	–	–	–	–	–	–	0.0201	89.8	83.9	–	–	0.76	–
Cn1c(=O)c2c(ncn2C)n(C)c1=O [Caffeine]	100	1.28	–	–	–	–	–	–	–	–	–	0.0152	64.7	63.2	–	–	0.94	–
O=C(O)CCCc1ccc(N(CCCl)CCCl)cc1 [Chlorambucil]	0.16	–	0.01	–	–	–	–	–	–	–	–	–	–	–	3.41	0.61	–	half-life [8]: 1.23 min; half-life ([8]; plasma): 1.2 min; Brain Equilibration t1/2, Measured ([7]; pH 7.4): 0.75 min; Log Pc ([7]; pH 7.4): −3.54; Log PoS ([7]; pH 7.4): 1.26; Pc ([7]; pH 7.4): 287 ×10⁻⁶ cm/s; PcS ([7]; pH 7.4): 0.029 mL/s/g; PoS ([7]; pH 7.4): 18.14 mL/s/g; Log Po ([7]; pH 7.4): −0.74; Po ([7]; pH 7.4): 0.18 cm/s
CNCCC(Oc1ccc(C(F)(F)F)cc1)c1ccccc1 (stereo not shown) [Fluoxetine]	0.27	250	0.028	–	–	–	–	–	–	–	–	0.0105	100	21.3	4.50	–	15.8	–
CC(C)Cc1ccc(C(C)C(=O)O)cc1 (stereo not shown) [Ibuprofen]	0.11	3.38	0.016	–	–	–	–	–	–	–	–	–	–	–	–	–	–	–
NC(=O)CI [Iodoacetamide]	100	1.11	0.92	−4.04	−4.04	−2.04	91.7	91.7	0.00917	0.0092	0.00917	–	–	–	−0.19	−0.19	–	–
CC(C)NC(C)Cc1ccc(I)cc1 (stereo not shown) [Iofetamine, isopropyl-iodoamphetamine]	3.07	–	0.25	−2.54	−1.02	0.98	2910	94900	9.49	0.29	9.49	–	–	–	3.26	1.75	–	BBB PcS ([4]; protein-free saline, differing/elevated flow rates, best fit): 0.238 mL/s/g; half-life [8]: 3.16 min; Maximal flow—90% extraction, PcS/2.3 ([5]; pH 7.4): 0.13 mL/s/g; Peak flow rate for 90% E ([5]; pH 7.4): 7.6 mL/min/g
O=C[C@@H](O)[C@H](O)[C@@H](O)[C@@H](O)CO [L-Glucose]	100	0.13	1.00	−6.90	−6.90	−4.90	–	–	–	1.25e-05	1.25e-05	–	–	–	−3.18	−3.18	–	Pc [7]: 0.125 ×10⁻⁶ cm/s; Po [7]: 1.25e-07 cm/s
O=C1Nc2ccc(Cl)cc2C(c2ccccc2Cl)=NC1O (stereo not shown) [Lorazepam]	100	15.87	0.16	−2.52	−2.52	−0.52	3000	3000	–	0.30	0.30	–	–	–	–	–	–	half-life [8]: 1.39 min; Maximal flow—90% extraction, PcS/2.3 ([5]; pH 7.4): 0.13 mL/s/g
CO [Methanol]	100	1.06	1.00	−3.56	−3.56	−1.56	278	278	0.0278	0.028	0.0278	–	–	–	−0.52	−0.52	–	–
CNC(N)=O [Methylurea]	100	1.04	1.00	−5.72	−5.72	−3.72	1.91	1.91	0.000191	0.00019	0.000191	0.000563	0.79	0.79	−1.40	−1.40	–	–
CCCCNS(=O)(=O)c1ccccc1 [N-butyl-benzene sulfonamide]	100	10	0.30	−2.42	−2.42	−0.42	3800	3800	0.38	0.38	0.38	–	–	–	2.20	2.20	–	Maximal flow—90% extraction, PcS/2.3 ([5]; pH 7.4): 0.17 mL/s/g
CCC1(c2ccccc2)C(=O)NC(=O)NC1=O [Phenobarbital]	47.7	–	0.25	–	–	–	–	–	–	–	–	–	–	–	1.53	1.51	–	half-life [8]: 7.39 min; Log Pc ([7]; pH 7.4): −4.19; Log PoS ([7]; pH 7.4): −1.86; Pc ([7]; pH 7.4): 65.1 ×10⁻⁶ cm/s; PcS ([7]; pH 7.4): 0.0065 mL/s/g; PoS ([7]; pH 7.4): 0.0136 mL/s/g; Log Po ([7]; pH 7.4): −3.86; Po ([7]; pH 7.4): 0.000136 cm/s
CC(=O)[C@H]1CC[C@H]2[C@@H]3CCC4=CC(=O)CC[C@]4(C)[C@H]3CC[C@]12C [Progesterone]	100	28.6	0.03	–	–	–	–	–	–	–	–	–	–	–	3.48	3.48	0.42	–
CC(C)NCC(O)COc1cccc2ccccc12 (stereo not shown) [Propranolol]	0.74	27.8	0.09	–	–	–	–	–	–	–	–	0.00806	98.3	30.5	–	–	3.93	–
OC[C@H]1O[C@@](CO)(O[C@H]2O[C@H](CO)[C@@H](O)[C@H](O)[C@H]2O)[C@@H](O)[C@@H]1O [Sucrose]	100	0.05	1.00	–	–	–	–	–	–	–	–	–	2.00E-04	2.00E-04	−3.57	−3.57	120	–
CC(=O)CC(c1ccccc1)c1c(O)c2ccccc2oc1=O (stereo not shown) [Warfarin]	0.01	3.03	8.0E−03	–	–	–	–	–	–	–	–	–	–	–	–	–	–	Log Pc ([7]; pH 7.4): −4.15; Log PoS ([7]; pH 7.4): 1.71; Pc ([7]; pH 7.4): 70.6 ×10⁻⁶ cm/s; PcS ([7]; pH 7.4): 0.0071 mL/s/g; PoS ([7]; pH 7.4): 51.2 mL/s/g; Log Po ([7]; pH 7.4): −0.29; Po ([7]; pH 7.4): 0.51 cm/s
Inulin	89.0	0.02	1.00	−8.12	−8.12	−6.12	0.0075	0.0075	7.5e-07	7.5e-07	7.5e-07	–	–	–	−4.36	−4.13	–	–
